Results: patent US12662489B2 (Sitryx Therapeutics Limited, priority 2023, dated 2026)
pIC50: −log10 of the molar value.

Legend:
[1] = target: T1, MTHFD1 recombinant human enzyme (Homo sapiens, UniProt P11586); assay: MTHFD1 inhibition assay (NAD(P)H-Glo luminescence); conditions: MTHFD1 IC50, recombinant human enzyme 200 nM, NADP, band
T1 sequence (P11586 2-291 limits assumed): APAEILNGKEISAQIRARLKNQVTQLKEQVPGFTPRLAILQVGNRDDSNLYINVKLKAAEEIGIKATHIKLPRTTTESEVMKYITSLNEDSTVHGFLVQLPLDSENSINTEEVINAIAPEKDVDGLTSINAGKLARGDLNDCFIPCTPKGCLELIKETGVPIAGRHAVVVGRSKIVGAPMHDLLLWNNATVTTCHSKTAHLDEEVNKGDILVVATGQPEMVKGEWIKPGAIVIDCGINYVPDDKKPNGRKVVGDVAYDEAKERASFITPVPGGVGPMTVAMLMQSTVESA

[2] = target: T2, MTHFD2 recombinant human enzyme (Homo sapiens, UniProt P13995); assay: MTHFD2 inhibition assay (NAD(P)H-Glo luminescence); conditions: for MTHFD1/MTHFD2 IC50 ratio: selectivity of MTHFD2 inhibition over MTHFD1, band
T2 sequence (P13995 36-350): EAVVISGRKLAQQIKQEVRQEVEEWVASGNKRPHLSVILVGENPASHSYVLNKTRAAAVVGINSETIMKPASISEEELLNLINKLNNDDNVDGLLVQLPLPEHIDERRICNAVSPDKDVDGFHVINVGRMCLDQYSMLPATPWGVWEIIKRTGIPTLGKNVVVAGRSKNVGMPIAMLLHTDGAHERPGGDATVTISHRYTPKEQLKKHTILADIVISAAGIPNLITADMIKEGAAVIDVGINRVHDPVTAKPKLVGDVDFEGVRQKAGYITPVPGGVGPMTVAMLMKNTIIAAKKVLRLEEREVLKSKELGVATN

| Compound | pIC50 [1] | pIC50 [2] | MTHFD1/MTHFD2 IC50 ratio [2] |
| --- | --- | --- | --- |
| COC[C@H]1CN(c2cc(C)c3c4c(c(=O)oc3c2C)CN(C(=O)c2ccc(C(=O)NS(=O)(=O)N3CCCC3)c(N(C)C)c2F)CC4)CCN1C [Example 138, (R)-2-(dimethylamino)-3-fluoro-4-(8-(3-(methoxymethyl)-4-methylpiperazin-1-yl)-7,10-dimethyl-5-oxo-1,3,4,5-tetrahydro-2H-chromeno[3,4-c]pyridine-3-carbonyl)-N-(pyrrolidin-1-ylsulfonyl)benzamide] | 6.00 to 7.00 | 7.00 to 8.00 | H (>9.0 to 30) |
| COC[C@H]1CN(c2cc(C)c3c4c(c(=O)oc3c2C)CN(C(=O)c2ccc(C(=O)NS(=O)(=O)N(C)C)c(N(C)C3CCC3)c2F)CC4)CCN1C [Example 39, (R)-2-(cyclobutyl(methyl)amino)-N-(N,N-dimethylsulfamoyl)-3-fluoro-4-(8-(3-(methoxymethyl)-4-methylpiperazin-1-yl)-7,10-dimethyl-5-oxo-1,3,4,5-tetrahydro-2H-chromeno[3,4-c]pyridine-3-carbonyl)benzamide] | 7.00 to 8.00 | 8.00 to 9.00 | G (^ 3 to 9.0) |
| [2H]C([2H])([2H])Oc1c(C(=O)NS(=O)(=O)N2C3CCC2CC3)ccc(C(=O)N2CCc3c(c(=O)oc4c(C)c(N5CCN(C)[C@@H](COC)C5)cc(C)c34)C2)c1F [Example 252, (R)-N-((7-azabicyclo[2.2.1]heptan-7-yl)sulfonyl)-3-fluoro-2-(methoxy-d3)-4-(8-(3-(methoxymethyl)-4-methylpiperazin-1-yl)-7,10-dimethyl-5-oxo-1,3,4,5-tetrahydro-2H-chromeno[3,4-c]pyridine-3-carbonyl)benzamide] | 6.00 to 7.00 | 8.00 to 9.00 | J (>30) |
| COC[C@H]1CN(c2cc(C)c3c4c(c(=O)oc3c2C)CN(C(=O)c2ccc(C(=O)NS(=O)(=O)N(C)C)c(N3CCC3)c2)CC4)CCN1C [Example 89, (R)-2-(azetidin-1-yl)-N-(N,N-dimethylsulfamoyl)-4-(8-(3-(methoxymethyl)-4-methylpiperazin-1-yl)-7,10-dimethyl-5-oxo-1,3,4,5-tetrahydro-2H-chromeno[3,4-c]pyridine-3-carbonyl)benzamide] | 8.00 to 9.00 | 8.00 to 9.00 | F (<3) |
| COC[C@H]1CN(c2cc(Cl)c3c4c(c(=O)oc3c2C)CN(C(=O)c2cc(N(C)C)c(C(=O)NS(=O)(=O)N3CCC5(CC5)C3)cc2F)CC4)CCN1C [Example 274, (R)-N-((5-azaspiro[2.4]heptan-5-yl)sulfonyl)-4-(10-chloro-8-(3-(methoxymethyl)-4-methylpiperazin-1-yl)-7-methyl-5-oxo-1,3,4,5-tetrahydro-2H-chromeno[3,4-c]pyridine-3-carbonyl)-2-(dimethylamino)-5-fluorobenzamide] | 6.00 to 7.00 | 7.00 to 8.00 | H (>9.0 to 30) |
| CCOc1c(C(=O)NS(=O)(=O)N2CC3CC3C2)ccc(C(=O)N2CCc3c(c(=O)oc4c(C)c(N5CCN(C)[C@@H](COC)C5)cc(C)c34)C2)c1F (stereo partly drawn) [Example 229] | 7.00 to 8.00 | 7.00 to 8.00 | G (^ 3 to 9.0) |
| COC[C@H]1CN(c2ccc3c4c(c(=O)oc3c2C)CN(C(=O)c2ccc(C(=O)NS(=O)(=O)N(C)C(C)C)c(N3CCCC3)c2)CC4)CCN1C [Example 31, (R)-N-(N-isopropyl-N-methylsulfamoyl)-4-(8-(3-(methoxymethyl)-4-methylpiperazin-1-yl)-7-methyl-5-oxo-1,3,4,5-tetrahydro-2H-chromeno[3,4-c]pyridine-3-carbonyl)-2-(pyrrolidin-1-yl)benzamide] | 7.00 to 8.00 | 8.00 to 9.00 | G (^ 3 to 9.0) |
| COC[C@H]1CN(c2cc(Cl)c3c4c(c(=O)oc3c2C)CN(C(=O)c2cc(N(C)C)c(C(=O)NS(=O)(=O)N3CCCCC3)cc2F)CC4)CCN1C [Example 275, (R)-4-(10-chloro-8-(3-(methoxymethyl)-4-methylpiperazin-1-yl)-7-methyl-5-oxo-1,3,4,5-tetrahydro-2H-chromeno[3,4-c]pyridine-3-carbonyl)-2-(dimethylamino)-5-fluoro-N-(piperidin-1-ylsulfonyl)benzamide] | 6.00 to 7.00 | 7.00 to 8.00 | G (^ 3 to 9.0) |
| COC[C@H]1CN(c2cc(Cl)c3c4c(c(=O)oc3c2C)CN(C(=O)c2ccc(C(=O)NS(=O)(=O)N3CC5CC5C3)c(OC)c2)CC4)CCN1C (stereo partly drawn) [Example 280, N-((3-azabicyclo[3.1.0]hexan-3-yl)sulfonyl)-4-(10-chloro-8-((R)-3-(methoxymethyl)-4-methylpiperazin-1-yl)-7-methyl-5-oxo-1,3,4,5-tetrahydro-2H-chromeno[3,4-c]pyridine-3-carbonyl)-2-methoxybenzamide] | 6.00 to 7.00 | 7.00 to 8.00 | H (>9.0 to 30) |
| COC[C@H]1CN(c2cc(C)c3c4c(c(=O)oc3c2C)CN(C(=O)c2cc(N(C)C)c(C(=O)NS(=O)(=O)N3CCCC3)cc2C(F)(F)F)CC4)CCN1C [Example 152, (R)-2-(dimethylamino)-4-(8-(3-(methoxymethyl)-4-methylpiperazin-1-yl)-7,10-dimethyl-5-oxo-1,3,4,5-tetrahydro-2H-chromeno[3,4-c]pyridine-3-carbonyl)-N-(pyrrolidin-1-ylsulfonyl)-5-(trifluoromethyl)benzamide] | < 5.30 | 6.00 to 7.00 | H (>9.0 to 30) |
| COC[C@H]1CN(c2ccc3c4c(c(=O)oc3c2C)CN(C(=O)c2cc(Cl)c(C(=O)NS(=O)(=O)C3(C)CC3)c(N3CC5CC5C3)c2)CC4)CCN1C (stereo partly drawn) [Example 32, 2-(3-azabicyclo[3.1.0]hexan-3-yl)-6-chloro-4-(8-((R)-3-(methoxymethyl)-4-methylpiperazin-1-yl)-7-methyl-5-oxo-1,3,4,5-tetrahydro-2H-chromeno[3,4-c]pyridine-3-carbonyl)-N-((1-methylcyclopropyl)sulfonyl)benzamide] | 6.00 to 7.00 | 7.00 to 8.00 | J (>30) |
| COC[C@H]1CN(c2ccc3c4c(c(=O)oc3c2C)CN(C(=O)c2ccc(C(=O)NS(=O)(=O)C3(C)CC3)c(N(C)C)c2F)CC4)CCN1C [Example 137, (R)-2-(dimethylamino)-3-fluoro-4-(8-(3-(methoxymethyl)-4-methylpiperazin-1-yl)-7-methyl-5-oxo-1,3,4,5-tetrahydro-2H-chromeno[3,4-c]pyridine-3-carbonyl)-N-((1-methylcyclopropyl)sulfonyl)benzamide] | 6.00 to 7.00 | 7.00 to 8.00 | G (^ 3 to 9.0) |
| COC[C@H]1CN(c2cc(C)c3c4c(c(=O)oc3c2C)CN(C(=O)c2ccc(C(=O)NS(=O)(=O)N(C)C)c(N3CC5CC5C3)c2)CC4)CCN1C (stereo partly drawn) [Example 47, 2-(3-azabicyclo[3.1.0]hexan-3-yl)-N-(N,N-dimethylsulfamoyl)-4-(8-((R)-3-(methoxymethyl)-4-methylpiperazin-1-yl)-7,10-dimethyl-5-oxo-1,3,4,5-tetrahydro-2H-chromeno[3,4-c]pyridine-3-carbonyl)benzamide] | 8.00 to 9.00 | 8.00 to 9.00 | G (^ 3 to 9.0) |
| COC[C@H]1CN(c2cc(Cl)c3c4c(c(=O)oc3c2C)CN(C(=O)c2cc(N(C)C)c(C(=O)NS(=O)(=O)N3CCCCC35COC5)cc2F)CC4)CCN1C [Example 271, (R)-N-((2-oxa-5-azaspiro[3.5]nonan-5-yl)sulfonyl)-4-(10-chloro-8-(3-(methoxymethyl)-4-methylpiperazin-1-yl)-7-methyl-5-oxo-1,3,4,5-tetrahydro-2H-chromeno[3,4-c]pyridine-3-carbonyl)-2-(dimethylamino)-5-fluorobenzamide] | 5.30 to 6.00 | 7.00 to 8.00 | H (>9.0 to 30) |
| CCOc1cc(C(=O)N2CCc3c(c(=O)oc4c(C)c(N5CCN(C)[C@@H](COC)C5)cc(Cl)c34)C2)c(F)cc1C(=O)NS(=O)(=O)N1CC2CCC(C1)O2 [Example 301, N-((8-oxa-3-azabicyclo[3.2.1]octan-3-yl)sulfonyl)-4-(10-chloro-8-((R)-3-(methoxymethyl)-4-methylpiperazin-1-yl)-7-methyl-5-oxo-1,3,4,5-tetrahydro-2H-chromeno[3,4-c]pyridine-3-carbonyl)-2-ethoxy-5-fluorobenzamide] | 6.00 to 7.00 | 7.00 to 8.00 | J (>30) |
| COC[C@H]1CN(c2cc(C)c3c4c(c(=O)oc3c2C)CN(C(=O)c2cc(OC3CCCC3)c(C(=O)NS(=O)(=O)N3CCCC3)cc2F)CC4)CCN1C [Example 111, (R)-2-(cyclopentyloxy)-5-fluoro-4-(8-(3-(methoxymethyl)-4-methylpiperazin-1-yl)-7,10-dimethyl-5-oxo-1,3,4,5-tetrahydro-2H-chromeno[3,4-c]pyridine-3-carbonyl)-N-(pyrrolidin-1-ylsulfonyl)benzamide] | 7.00 to 8.00 | 7.00 to 8.00 | F (<3) |
